{"source": "paper PMC11299021", "about": "“Machine learning-assisted substrate binding pocket engineering based on structural information” (Briefings in Bioinformatics, 2024)", "biological_target": "T1, KvAP (Klebsiella variicola acid phosphatase) (Klebsiella variicola, UniProt B5XS64)", "T1 construct": "gene KPK_3238; synthetic gene in pET-22b (NdeI/BlpI), E. coli BL21(DE3); His-Trap and Superdex 75 purified", "T1 sequence (B5XS64 20-248)": "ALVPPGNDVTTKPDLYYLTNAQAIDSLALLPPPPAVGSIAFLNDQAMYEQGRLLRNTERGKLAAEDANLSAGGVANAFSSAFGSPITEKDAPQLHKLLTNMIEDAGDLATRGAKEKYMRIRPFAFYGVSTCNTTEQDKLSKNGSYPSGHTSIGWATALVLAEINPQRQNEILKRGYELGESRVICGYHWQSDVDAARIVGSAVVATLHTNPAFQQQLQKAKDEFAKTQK", "test": "p-nitrophenol release at […] nm (specific activity)", "type": "biochemical", "conditions": "200 mM p-NPP disodium salt, 50 mM acetate pH 5.0, 37 °C, 20 min"}
{"smiles": "O=[N+]([O-])c1ccc(OP(=O)(O)O)cc1", "note": "[p-NPP]", "values": [{"measurement": "p-nitrophenol release at 405 nm (specific activity)", "value": "The purified enzyme was used for measuring its activity against nitrophenyl phosphate (p-NPP)"}]}
